In ChEMBL document CHEMBL1148562, “Synthesis and biological evaluation of novel pyrrolo[2,1-c][1,4]benzodiazepine prodrugs for use in antibody-directed enzyme prodrug therapy” (Bioorg Med Chem Lett, 2006):

How the values were obtained:
LS174T [1] = test: Cytotoxicity against LS174T human colon cell line after continuous exposure; type: functional, cell-based
[2] = Conversion of prodrug to parent in distilled water at room temperature for 24 hrs; type: ADME; conditions: buffer
LS174T [3] = test: Cytotoxicity against LS174T human colon cell line after 1 hour of exposure; type: functional, cell-based
[4] = Conversion of prodrug to parent in distilled water at 37 degC for 24 hrs; type: ADME; conditions: buffer

| Compound | IC50 (LS174T [1]) [nM] | Activity [2] | IC50 (LS174T [3]) [nM] | Activity [4] | Stability [2] |
| --- | --- | --- | --- | --- | --- |
| COc1cc2c(cc1OC)N(C(=O)OCc1ccc(NC(=O)N[C@@H](CCC(=O)O)C(=O)O)cc1)[C@@H](O)[C@@H]1CCCN1C2=O | 1600 | Active | 28000 | Active | – |
| COc1cc2c(cc1OCCCOc1cc3c(cc1OC)C(=O)N1CCC[C@H]1[C@H](O)N3C(=O)OCc1ccc(NC(=O)N[C@@H](CCC(=O)O)C(=O)O)cc1)N(C(=O)OCc1ccc(NC(=O)N[C@@H](CCC(=O)O)C(=O)O)cc1)[C@@H](O)[C@@H]1CCCN1C2=O | 0.8 | Active | 6 | Active | – |
| COc1cc2c(cc1OC)C(=O)N1CCC[C@H]1C=N2 | 1400 | – | 14000 | – | – |
| COc1cc2c(cc1OCCCOc1cc3c(cc1OC)C(=O)N1CCC[C@H]1[C@H](O)N3C(=O)OCc1ccc(OC(=O)N[C@@H](CCC(=O)O)C(=O)O)cc1)N(C(=O)OCc1ccc(OC(=O)N[C@@H](CCC(=O)O)C(=O)O)cc1)[C@@H](O)[C@@H]1CCCN1C2=O | 21 | – | 200 | 3% | Stable |
| COc1cc2c(cc1OC)N(C(=O)OCc1ccc(OC(=O)N[C@@H](CCC(=O)O)C(=O)O)cc1)[C@@H](O)[C@@H]1CCCN1C2=O | 20000 | – | > 100000 | 7% | Stable |
| COc1cc2c(cc1OCCCOc1cc3c(cc1OC)C(=O)N1CCC[C@H]1C=N3)N=C[C@@H]1CCCN1C2=O [DSB-120] | 0.47 | – | 13 | – | – |
